Experimental data as given in patent US20050096350A1, “Halo substituted benzo[b]thiophenes as therapeutic agents” (priority 2003, published 2005).

Target: T1, PI3Kγ (purified recombinant p101/p110γ protein) (Homo sapiens, UniProt P48736)
T1 construct: HA; made in house; host or cells: Spodoptera frugiperda Sf9 cells (baculovirus coinfection)
Test: PI3Kγ in vitro kinase assay
Format: biochemical
Conditions: 20 μM ATP, 25 μM PIP2, G protein β1/γ2 subunits
Experimental: Spodtera frugiperda cells, grown in ESF921 media, were coinfected with baculovirus expressing a glu-tagged p101 and baculovirus expressing an HA-tagged […], at a 3:1 ratio of p101 baculovirus to p110γ baculovirus. Sf9 cells were grown to 1×10^7 total cells/mL in 10 L bioreactors and harvested 48-72 hours post infection. Samples of infected cells were then tested for expression of p101/p110γ PI3 kinase by immunoprecipitation and Western Blot analysis methods (see below).
To purify PI3Kγ, 4 volumes of room temperature hypotonic lysis buffer (1 mM MgCl2, 1 mM DTT, 5 mM EGTA, 1 mM Pefabloc, 0.5 μM aprotinin, 5 μM leupeptin, 2 μM pepstatin, 5 μM E64, pH 8) per gram of cell paste, was poured onto frozen cell pellets with stirring, then lysed in a nitrogen “bomb” at 400 psi (599HC T316, Parr Instrument Co, Moline, Ill.). NaCl was added to 150 mM, and sodium cholate was added to 1% and mixed for another 45 minutes. The lysates were clarified by centrifugation for 25 minutes at 14,000 rpm. The lysates were then loaded over anti-glu-linked Protein-G Sepaharose beads (Covance Research Products, Richmond, Calif.) using 20 mL resin/50 g cell paste. The column was washed with 15 volumes of wash buffer (1 mM DTT, 0.2 mM EGTA, 1 mM Pefabloc, 0.5 μM aprotinin, 5 μM leupeptin, 2 μM pepstatin, 5 μM E64, 150 mM NaCl, 1% sodium cholate, pH 8). PI3Kγ was eluted with 6 column volumes of wash buffer that contain 100 μg/mL of a peptide that competes for binding of the glu tag. The column fractions with the eluted protein (determined by taking OD280 readings) were collected and dialyzed in 0.2 mM EGTA, 1 mM DTT, 1 mM Pefabloc, 5 μM leupeptin, 0.5% sodium cholate, 150 mM NaCl, and 50% glycerol, pH 8. The fractions were stored at −80° C. until further use.
Spodtera frugiperda cells were coinfected with baculovirus expressing a glu-tagged G protein β1 and baculovirus expressing a G protein β2, at a 1:1 ratio of glu-tagged G protein β1 baculovirus to G protein β2 baculovirus. Sf9 cells are grown in 10 L bioreactors and harvested 48-72 hours post infection. Samples of infected cells were tested for G protein β1/β2 expression by Western Blot analysis, as described below. Cell lysates were homogenized and loaded onto a column of glu-tagged beads as in Biological Example 1 and competed off the column with a glu peptide and processed as described in Biological Example 1.
The inhibitory properties of the compounds in Table 1 were assayed in an in vitro PI3K assay. In a 96-well polypropylene plate, each well was spotted with 2 μL of 50 times the desired final concentration of compound in DMSO. Purified recombinant p101/p110γ protein (0.03 μg; ˜2.7 nM) and G protein β1/γ2 subunits (0.09 μg; ˜57.7 nM) for each reaction was combined in the assay buffer (30 mM HEPES, 100 mM NaCl, 1 mM EGTA, and 1 mM DTT). ATP and [γ-^32P-ATP] (0.09 μCi) were added to this mixture so that the final ATP concentration in the reaction was 20 μM. Lipid micelles were formed by sonicating phosphatidylinositol-4,5-diphosphate (PIP2), phosphatidylethanolamine (PE), and Na-cholate in the assay buffer for 10 minutes, adding MgCl2 and incubating on ice for 20 minutes, for final concentrations of 25 μM PIP2, 300 μM PE, 0.02% Na-cholate, and 10 mM MgCl2 in the reaction. The reactions were started by adding equal volumes lipid and enzyme mixture in a total volume of 50 μL, allowed to run for 20 minutes at room temperature, and stopped with 100 μL 75 mM H3PO4. The lipid product was transferred to a glass fiber filter plate and washed with 75 mM H3PO4 several times. The presence of radioactive lipid product (PIP3) was measured by adding Wallac Optiphase mix to each well and counting in a Wallac 1450 Trilux plate reader (PerkinElmer Life Sciences Inc., Boston, Mass. 02118). The IC50 for each compound tested is reported in μM in the Tables above.

T1 sequence (P48736 whole entry, species assumed): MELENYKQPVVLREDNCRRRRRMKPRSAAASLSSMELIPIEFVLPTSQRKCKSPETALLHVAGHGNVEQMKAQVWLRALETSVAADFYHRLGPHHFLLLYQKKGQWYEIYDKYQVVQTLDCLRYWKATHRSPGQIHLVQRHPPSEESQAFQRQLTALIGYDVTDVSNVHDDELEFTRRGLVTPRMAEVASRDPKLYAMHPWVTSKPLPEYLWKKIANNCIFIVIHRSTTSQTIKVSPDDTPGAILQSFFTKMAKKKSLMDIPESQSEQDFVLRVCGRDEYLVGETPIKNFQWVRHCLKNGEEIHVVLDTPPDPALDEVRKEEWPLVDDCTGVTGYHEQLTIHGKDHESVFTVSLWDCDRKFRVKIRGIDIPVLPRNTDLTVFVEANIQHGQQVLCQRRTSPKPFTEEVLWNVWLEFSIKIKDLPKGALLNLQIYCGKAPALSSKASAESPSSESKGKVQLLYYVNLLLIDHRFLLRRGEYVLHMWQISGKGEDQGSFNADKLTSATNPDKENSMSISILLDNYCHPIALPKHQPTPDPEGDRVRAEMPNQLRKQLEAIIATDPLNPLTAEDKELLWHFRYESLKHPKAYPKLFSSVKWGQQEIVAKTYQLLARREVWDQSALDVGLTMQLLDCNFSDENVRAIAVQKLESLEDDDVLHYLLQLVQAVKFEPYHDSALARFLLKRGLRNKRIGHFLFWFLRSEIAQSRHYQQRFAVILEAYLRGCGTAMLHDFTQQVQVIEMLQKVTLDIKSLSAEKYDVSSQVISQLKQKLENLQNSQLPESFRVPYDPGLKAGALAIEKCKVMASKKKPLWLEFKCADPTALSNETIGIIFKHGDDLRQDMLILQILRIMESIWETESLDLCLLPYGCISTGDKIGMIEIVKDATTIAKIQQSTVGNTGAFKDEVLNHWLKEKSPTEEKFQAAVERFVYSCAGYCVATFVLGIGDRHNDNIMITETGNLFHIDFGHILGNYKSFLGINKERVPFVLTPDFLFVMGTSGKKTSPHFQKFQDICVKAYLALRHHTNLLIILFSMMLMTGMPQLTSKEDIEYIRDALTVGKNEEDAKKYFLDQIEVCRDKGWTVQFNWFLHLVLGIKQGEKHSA
T1 sequence (Q8WYR1 whole entry partner, species assumed): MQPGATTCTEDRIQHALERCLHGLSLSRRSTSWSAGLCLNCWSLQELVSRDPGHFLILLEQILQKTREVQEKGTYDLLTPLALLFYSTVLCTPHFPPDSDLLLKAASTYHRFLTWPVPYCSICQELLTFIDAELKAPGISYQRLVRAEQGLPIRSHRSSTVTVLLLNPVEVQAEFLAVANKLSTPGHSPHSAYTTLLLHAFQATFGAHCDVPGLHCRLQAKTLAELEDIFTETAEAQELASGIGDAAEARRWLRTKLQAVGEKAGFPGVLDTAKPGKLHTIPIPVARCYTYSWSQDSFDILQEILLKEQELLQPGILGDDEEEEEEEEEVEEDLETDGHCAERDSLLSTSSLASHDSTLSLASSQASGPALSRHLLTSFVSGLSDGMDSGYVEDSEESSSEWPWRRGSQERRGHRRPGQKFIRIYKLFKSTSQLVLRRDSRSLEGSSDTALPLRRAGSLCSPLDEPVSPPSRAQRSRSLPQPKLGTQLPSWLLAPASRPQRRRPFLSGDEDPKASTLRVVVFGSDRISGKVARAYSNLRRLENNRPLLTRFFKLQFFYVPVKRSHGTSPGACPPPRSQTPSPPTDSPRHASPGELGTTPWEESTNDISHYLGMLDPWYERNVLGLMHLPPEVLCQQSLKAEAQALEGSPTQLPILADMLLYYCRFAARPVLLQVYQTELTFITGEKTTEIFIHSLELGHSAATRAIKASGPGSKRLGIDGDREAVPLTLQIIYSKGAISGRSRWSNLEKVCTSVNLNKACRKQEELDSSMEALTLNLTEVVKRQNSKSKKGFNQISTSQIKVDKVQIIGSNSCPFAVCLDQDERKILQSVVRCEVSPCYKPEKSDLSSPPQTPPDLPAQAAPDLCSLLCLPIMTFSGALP

Row | Compound | IC50 | other results
1 | COc1cc2c(Oc3ccc(C4CCCCC4)cc3)c(C(=O)Nc3nn[nH]n3)sc2cc1F [Example 4, 3-(4-Cyclohexyl-phenoxy)-6-fluoro-5-methoxy-benzo[b]thiophene-2-carboxylic acid (2H-tetrazol-5-yl)-amide] | 33.5 nM | –
2 | COc1cc2c(SC3CCCC3)c(C(=O)Nc3nnn[nH]3)sc2cc1F [Example 42, 3-Cyclopentylsulfanyl-6-fluoro-5-methoxy-benzo[b]thiophene-2-carboxylic acid (1H-tetrazol-5-yl)-amide] | – | IC50 (table b291): 11 nM
3 | COc1ccc2c(SC3CCCC3)c(C(=O)Nc3nnn[nH]3)sc2c1F [Example 39, 3-Cyclopentylsulfanyl-7-fluoro-6-methoxy-benzo[b]thiophene-2-carboxylic acid (1H-tetrazol-5-yl)-amide] | – | IC50 (table b284): 16 nM
4 | COC(=O)c1cccc(Sc2c(C(=O)Nc3nnn[nH]3)sc3ccc(OC)c(F)c23)c1 [Example 24, 3-[4-Fluoro-5-methoxy-2-(1H-tetrazol-5-ylcarbamoyl)-benzo[b]thiophen-3-ylsulfanyl]-benzoic acid methyl ester] | 4200 nM | –
5 | COc1ccc2sc(C(=O)Nc3nnn[nH]3)c(Sc3cccc(C(=O)O)c3)c2c1F [Example 25, 3-[4-Fluoro-5-methoxy-2-(1H-tetrazol-5-ylcarbamoyl)-benzo[b]thiophen-3-ylsulfanyl]-benzoic acid] | 2390 nM | –
6 | COc1cc2c(OC3CCCC(C)(C)C3)c(C(=O)Nc3nn[nH]n3)sc2cc1F (stereo not shown) [Example 13, 3-(3,3-Dimethyl-cyclohexyloxy)-6-fluoro-5-methoxy-benzo[b]thiophene-2-carboxylic acid (2H-tetrazol-5-yl)-amide] | 6.5 nM | –
7 | COc1cc2c(OC3CCCCCC3)c(C(=O)Nc3nn[nH]n3)sc2cc1F [Example 8, 3-Cycloheptyloxy-6-fluoro-5-methoxy-benzo[b]thiophene-2-carboxylic acid (2H-tetrazol-5-yl)-amide] | 3.4 nM | –
8 | COc1cc2c(OC3CCC3)c(C(=O)Nc3nn[nH]n3)sc2cc1F [Example 16, 3-Cyclobutoxy-6-fluoro-5-methoxy-benzo[b]thiophene-2-carboxylic acid (2H-tetrazol-5-yl)-amide] | 32.5 nM | –
9 | COC(=O)c1ccc(Sc2c(C(=O)Nc3nnn[nH]3)sc3ccc(OC)c(F)c23)cc1 [Example 26, 4-[4-Fluoro-5-methoxy-2-(1H-tetrazol-5-ylcarbamoyl)-benzo[b]thiophen-3-ylsulfanyl]-benzoic acid methyl ester] | 20000 nM | –
10 | COc1cc2c(O[C@H]3CCC[C@H](C)C3)c(C(=O)Nc3nn[nH]n3)sc2cc1F (racemic) [Example 17, trans-(±)-6-Fluoro-5-methoxy-3-(3-methyl-cyclohexyloxy)-benzo[b]thiophene-2-carboxylic acid (2H-tetrazol-5-yl)-amide] | – | IC50 (table b197): 35 nM
11 | COc1cc2c(Oc3ccc(C4CCCCC4)cc3)c(C(=O)Nc3nn[nH]n3)sc2cc1Br [Example 43, 6-Bromo-3-(4-Cyclohexyl-phenoxy)-5-methoxy-benzo[b]thiophene-2-carboxylic acid (2H-tetrazol-5-yl)-amide] | – | IC50 (table b298): 380 nM
12 | COc1ccc2sc(C(=O)Nc3nnn[nH]3)c(Sc3ccc(O)cc3)c2c1F [Example 22, 4-Fluoro-3-(4-hydroxy-phenylsulfanyl)-5-methoxy-benzo[b]thiophene-2-carboxylic acid (1H-tetrazol-5-yl)-amide] | 2760 nM | –
13 | 3-(4-Cyclohexyl-phenylsulfanyl)-4-fluoro-5-methoxy-benzo[b]thiophene-2-carboxylic acid (1H-tetrazol-5-yl)-amide [Example 37] | 505 nM | –
14 | COc1ccc2sc(C(=O)Nc3nnn[nH]3)c(Sc3ccc(C(=O)O)cc3)c2c1F [Example 34, 4-[4-Fluoro-5-methoxy-2-(1H-tetrazol-5-ylcarbamoyl)-benzo[b]thiophen-3-ylsulfanyl]-benzoic acid] | 5950 nM | –
15 | COc1cc2c(OC3CC(C)CC(C)(C)C3)c(C(=O)Nc3nn[nH]n3)sc2cc1F (stereo not shown) [Example 12, 6-Fluoro-5-methoxy-3-(3,3,5-trimethyl-cyclohexyloxy)-benzo[b]thiophene-2-carboxylic acid (2H-tetrazol-5-yl)-amide] | 5.3 nM | –

Further lines, with some results ahead:

Row | IC50 | Compound | other results
16 | 45.5 nM | 3-(4-Chloro-phenylsulfanyl)-6-fluoro-5-methoxy-benzo[b]thiophene-2-carboxylic acid (1H-tetrazol-5-yl)-amide [Example 20] | –
17 | 15 nM | COc1cc2c(Oc3ccc(OC4CCCC4)cc3)c(C(=O)Nc3nn[nH]n3)sc2cc1F [Example 2, 3-(4-Cyclopentyloxy-phenoxy)-6-fluoro-5-methoxy-benzo[b]thiophene-2-carboxylic acid (2H-tetrazol-5-yl)-amide] | –
18 | 3.8 nM | COc1cc2c(O[C@H]3CCC[C@@H](C)C3)c(C(=O)Nc3nn[nH]n3)sc2cc1F (racemic) [Example 9, cis-(±)-6-Fluoro-5-methoxy-3-(3-methyl-cyclohexyloxy)-benzo[b]thiophene-2-carboxylic acid (2H-tetrazol-5-yl)-amide] | –
19 | 19400 nM | COc1ccc(Sc2c(C(=O)Nc3nnn[nH]3)sc3ccc(OC)c(F)c23)cc1 [Example 33, 4-Fluoro-5-methoxy-3-(4-methoxy-phenylsulfanyl)-benzo[b]thiophene-2-carboxylic acid (1H-tetrazol-5-yl)-amide] | –
20 | 32.5 nM | COc1cc2c(Sc3ccccc3)c(C(=O)Nc3nnn[nH]3)sc2cc1F [Example 19, 6-Fluoro-5-methoxy-3-phenylsulfanyl-benzo[b]thiophene-2-carboxylic acid (1H-tetrazol-5-yl)-amide] | –
21 | 3640 nM | COc1ccc2sc(C(=O)Nc3nnn[nH]3)c(Sc3cccc(O)c3)c2c1F [Example 23, 4-Fluoro-3-(3-hydroxy-phenylsulfanyl)-5-methoxy-benzo[b]thiophene-2-carboxylic acid (1H-tetrazol-5-yl)-amide] | –
22 | 62.5 nM | COc1cc2c(OC3CCOCC3)c(C(=O)Nc3nn[nH]n3)sc2cc1F [Example 14, 6-Fluoro-5-methoxy-3-(tetrahydro-pyran-4-yloxy)-benzo[b]thiophene-2-carboxylic acid (2H-tetrazol-5-yl)-amide] | –
23 | 470 nM | COc1cccc(Sc2c(C(=O)Nc3nnn[nH]3)sc3cc(F)c(OC)cc23)c1 [Example 18, 6-Fluoro-5-methoxy-3-(3-methoxy-phenylsulfanyl)-benzo[b]thiophene-2-carboxylic acid (1H-tetrazol-5-yl)-amide] | –
24 | 2.2 nM | COc1cc2c(OC3CC(C)CC(C)C3)c(C(=O)Nc3nn[nH]n3)sc2cc1F (stereo not shown) [Example 15, 3-(3,5-Dimethyl-cyclohexyloxy)-6-fluoro-5-methoxy-benzo[b]thiophene-2-carboxylic acid (2H-tetrazol-5-yl)-amide] | –
25 | 580 nM | COc1ccc2sc(C(=O)Nc3nnn[nH]3)c(SC3CCCCC3)c2c1F [Example 21, 3-Cyclohexylsulfanyl-4-fluoro-5-methoxy-benzo[b]thiophene-2-carboxylic acid (1H-tetrazol-5-yl)-amide] | –
